From US7666846B2, “Cholesterol-containing compounds and their use as immunogens against Borrelia burgdorferi” (The United States of America as represented by the …, priority 2003, dated 2010)
Entries after “also recorded” stand apart in the source; their conditions may differ.

Assays:
[1] = system: immobilized polymixin B on agarose; test: Affinity chromatography on Detoxi-Gel Endotoxin Removing Gel; type: binding; details: sonicated B. burgdorferi cells loaded; bound material eluted with 1% deoxycholic acid; TLC and immunolabeling
Protocol: Affinity Chromatography—BBGL-II was also purified by affinity chromatography using Detoxi-Gel Endotoxin Removing Gel (Pierce, Rockford, Ill.). Borrelia cells were washed 5 times with PBS, resuspended in the same buffer, and disrupted by ultrasonic treatment for 30 seconds, in a Branson sonifier operated at 50% duty cycles at 100 W. Membranes were separated from the soluble fraction by centrifugation at 37000 g for 30 minutes, and the supernatant (1 ml containing 1 mg total protein) was loaded on a detoxi-gel (agarose-immobilized-polymixin B) column (0.9×10 cm). The column was washed with 10 bed-volumes of PBS. Elution of the bound material was performed by washing with 10 bed volumes of PBS containing 1% Deoxycholic acid (w/v), according to the manufacturer's instructions. The bound fraction was dialyzed against distilled water, lyophilized, and lipids were extracted as mentioned.
This resin consists of immobilized polymixin B on agarose, and is used for the removal of endotoxins by binding to the lipid A portion of LPS.

[2] = Antibodies induced by BBGL-III (data not shown); type: in vivo
mice = test: Immunization of mice with glycolipid, antibody titers by ELISA; type: in vivo, NIH Swiss albino mice
Protocol: FIG. 11 is a graph showing antibody titers of sera from ice immunized with the glycolipid of formula B. Mice (10 mice per group) were immunized as described below, with the glycolipid of formula B in Freund's adjuvant (CFA); PBS; DMSO, or squalene. Antibody titers were determined by an ELISA in sera diluted 1:100, and are represented as an average of three independent assays. Brackets, standard deviation.
(§1) Immunization and Immunostaining—Groups of ten female NIH Swiss albino mice (5-6 weeks old, general purpose) were immunized intraperitoneally with 2 doses of BBGL-II emulsified in complete Freund's adjuvant (first dose) or incomplete Freund's adjuvant (second dose) two weeks apart. The doses contained 10 μg BBGL-II per 0.1 ml and were administered IP in 0.1 ml. Alternatively, mice were immunized three times, 2 weeks apart, with 10 μg of BBGL-II emulsified in 0.1 ml of DMSO, squalene, or PBS. Mice were bled 2 weeks after the second dose and the sera thus obtained was kept at −20° C. until used. Rabbits (females, New Zealand White, 8 weeks old) were immunized with two doses of BBGL-II, 75 μg each, in Fruend's adjuvant, administered i.m. and i.c. in 20×0.05 ml.

rabbits = test: Immunization of rabbits with glycolipid, antibody titers by ELISA; type: in vivo, New Zealand White rabbits
Protocol: FIG. 10 is a graph showing antibody titers of sera from rabbits immunized with the glycolipid of formula B. Antibody titers were measured by an ELISA, as described below, and represent an average of four different rabbit sera, diluted 1:100, each tested in three independent assays. Open bars, IgG titers; gray bars, IgM titers; brackets, standard deviation.
as §1

[3] = ELISA and TLC overlay assays of antibodies raised against the synthetic analog; type: in vivo
Protocol: Immunostaining of membrane lipids was performed as previously described (15). Developed chromatogram plates, containing lipid spots, were coated with polyisobutyl-methacrylate solution (0.05% in hexane) and allowed to dry. The plates were then blocked with PBS containing 1% BSA and 0.05% tween 20 for 15 minutes, and then incubated with anti BBGL-II antiserum, diluted 1:100 in PBS-BSA buffer for 1 hour at 22° C. The plates were rinsed 5 times with PBS-BSA buffer and incubated with alkaline phosphatase-conjugated rat anti mouse IgG (KPL, MD) diluted 1:25,000 in PBS-BSA for 1 hour at 22° C. The plates were then washed, and developed using BCIP/NBT (KPL, MD).

Compound: 1,2-diacyl-3-[O-α-D-galactopyranosyl]-sn-glycerol [BBGL-III]
- binding to Detoxi-Gel (polymixin B) column [1]: not bound to the column
- isotype of induced antibodies ([2]; data not shown): mostly IgM
- induction of antibodies ([2]; data not shown, species not stated): induced antibodies; also recorded: elicited antibodies
- reactivity of induced antibodies with BBGL-II and BBGL-III ([2]; in vivo): reacted with both glycolipids

Compound: CCCCCCCCCCCCCCCC(=O)OC[C@H]1O[C@@H](O[C@H]2CC[C@@]3(C)C(=CC[C@H]4[C@@H]5CC[C@H]([C@H](C)CCCC(C)C)[C@@]5(C)CC[C@@H]43)C2)[C@H](O)[C@@H](O)[C@H]1O [BBGL-II, cholesteryl 6-O-palmitoyl-β-D-galactopyranoside]
- relative immunogenicity by formulation (mice; in PBS (likely as micelles) compared with solute in DMSO or squalene): more immunogenic than as a solute in DMSO or squalene
- isotype of elicited antibodies (mice; mice): mostly of the IgM isotype
- specificity of elicited antibodies (mice; mice): specific to the homologous glycolipid
- induction of antibodies (mice; mice injected with various formulations): Specific antibodies were induced; also recorded: elicited antibodies
- antibody titers by formulation (mice; with Freund's adjuvant, compared with PBS, DMSO, squalene): Highest titers
- isotype of elicited antibodies (rabbits): mostly of the IgM isotype
- specificity of elicited antibodies (rabbits): specific to the homologous glycolipid
- induction of antibodies (rabbits; Freund's adjuvant): Specific antibodies were induced; also recorded: elicited antibodies

Compound: CC(C)CCCC(C)C1CCC2C3CC=C4CC(OC5OC(COC(=O)CCCCCCCCCCCCCCCN=[N+]=[N-])C(O)C(O)C5O)CCC4(C)C3CCC12C (stereo not shown) [compound 19]
- antibodies raised, compared with purified native BBGL-II [3]: to the same extent as with the purified native BBGL-II
